Test results as given in ChEMBL document CHEMBL1697781, “Assessment of the health effects of chemicals in humans: II. Construction of an adverse effects database for QSAR modeling” (Curr Drug Discov Technol, 2004).

How the values were obtained:
Settings in all cases: human; call rule not given here
[1] = system: Hepatotoxicity; assay: FDA HLAED, lactate dehydrogenase (LDH) increase
[2] = system: Hepatotoxicity; assay: FDA HLAED, liver enzyme composite activity
[3] = system: Hepatotoxicity; assay: FDA HLAED, serum glutamic oxaloacetic transaminase (SGOT) increase
[4] = system: Hepatotoxicity; assay: FDA HLAED, alkaline phosphatase increase
[5] = system: Hepatotoxicity; assay: FDA HLAED, gamma-glutamyl transferase (GGT) increase
[6] = system: Hepatotoxicity; assay: FDA HLAED, serum glutamic pyruvic transaminase (SGPT) increase
Throughout, for GGT Increase - Index Value: reference of the scale not given here.
Throughout, for LDH Increase - Index Value: reference of the scale not given here.

O=[N+]([O-])O[C@@H]1CO[C@H]2[C@@H]1OC[C@@H]2O [ISOSORBIDE MONONITRATE]
LDH Increase - Activity Score [1]: Inactive
LDH Increase - Index Value [1]: 0.2
LDH Increase - Number of Reports [1]: < 4
Composite Activity - Active [2]: 0
Composite Activity - Marginal [2]: 0
Composite Activity - Score [2]: Inactive
SGOT Increase - Activity Score [3]: Inactive
SGOT Increase - Index Value [3]: 0.2
SGOT Increase - Number of Reports [3]: < 4
Alkaline Phosphatase Increase - Activity Score [4]: Inactive
Alkaline Phosphatase Increase - Index Value [4]: 0
Alkaline Phosphatase Increase - Number of Reports [4]: < 4
GGT Increase - Activity Score [5]: Inactive
GGT Increase - Index Value [5]: 0
GGT Increase - Number of Reports [5]: < 4
SGPT Increase - Activity Score [6]: Inactive
SGPT Increase - Index Value [6]: 0.5
SGPT Increase - Number of Reports [6]: < 4

CC1=C(/C=C/C(C)=C/C=C/C(C)=C\C(=O)O)C(C)(C)CCC1 [ISOTRETINOIN]
LDH Increase - Activity Score [1]: Active
LDH Increase - Index Value [1]: 54
LDH Increase - Number of Reports [1]: >= 4
Composite Activity - Active [2]: 4
Composite Activity - Marginal [2]: 0
Composite Activity - Score [2]: Active
SGOT Increase - Activity Score [3]: Active
SGOT Increase - Index Value [3]: 98.4
SGOT Increase - Number of Reports [3]: >= 4
Alkaline Phosphatase Increase - Activity Score [4]: Active
Alkaline Phosphatase Increase - Index Value [4]: 45.7
Alkaline Phosphatase Increase - Number of Reports [4]: >= 4
GGT Increase - Activity Score [5]: Inactive
GGT Increase - Index Value [5]: 0
GGT Increase - Number of Reports [5]: < 4
SGPT Increase - Activity Score [6]: Active
SGPT Increase - Index Value [6]: 63.7
SGPT Increase - Number of Reports [6]: >= 4

COC(=O)C1=C(C)NC(C)=C(C(=O)OC(C)C)C1c1cccc2nonc12 (stereo unspecified) [ISRADIPINE]
LDH Increase - Activity Score [1]: Inactive
LDH Increase - Index Value [1]: 0.3
LDH Increase - Number of Reports [1]: < 4
Composite Activity - Active [2]: 0
Composite Activity - Marginal [2]: 0
Composite Activity - Score [2]: Inactive
SGOT Increase - Activity Score [3]: Inactive
SGOT Increase - Index Value [3]: 0.8
SGOT Increase - Number of Reports [3]: >= 4
Alkaline Phosphatase Increase - Activity Score [4]: Inactive
Alkaline Phosphatase Increase - Index Value [4]: 0.5
Alkaline Phosphatase Increase - Number of Reports [4]: < 4
GGT Increase - Activity Score [5]: Inactive
GGT Increase - Index Value [5]: 0.2
GGT Increase - Number of Reports [5]: < 4
SGPT Increase - Activity Score [6]: Inactive
SGPT Increase - Index Value [6]: 0.7
SGPT Increase - Number of Reports [6]: >= 4

CCC(C)n1ncn(-c2ccc(N3CCN(c4ccc(OCC5COC(Cn6cncn6)(c6ccc(Cl)cc6Cl)O5)cc4)CC3)cc2)c1=O (stereo unspecified) [ITRACONAZOLE]
LDH Increase - Activity Score [1]: Active
LDH Increase - Index Value [1]: 5.8
LDH Increase - Number of Reports [1]: >= 4
Composite Activity - Active [2]: 5
Composite Activity - Marginal [2]: 0
Composite Activity - Score [2]: Active
SGOT Increase - Activity Score [3]: Active
SGOT Increase - Index Value [3]: 19.6
SGOT Increase - Number of Reports [3]: >= 4
Alkaline Phosphatase Increase - Activity Score [4]: Active
Alkaline Phosphatase Increase - Index Value [4]: 12.4
Alkaline Phosphatase Increase - Number of Reports [4]: >= 4
GGT Increase - Activity Score [5]: Active
GGT Increase - Index Value [5]: 14.1
GGT Increase - Number of Reports [5]: >= 4
SGPT Increase - Activity Score [6]: Active
SGPT Increase - Index Value [6]: 19.8
SGPT Increase - Number of Reports [6]: >= 4

CC(=O)N1CCN(c2ccc(OCC3COC(Cn4ccnc4)(c4ccc(Cl)cc4Cl)O3)cc2)CC1 (stereo unspecified) [KETOCONAZOLE]
LDH Increase - Activity Score [1]: Inactive
LDH Increase - Index Value [1]: 2.7
LDH Increase - Number of Reports [1]: < 4
Composite Activity - Active [2]: 3
Composite Activity - Marginal [2]: 0
Composite Activity - Score [2]: Active
SGOT Increase - Activity Score [3]: Active
SGOT Increase - Index Value [3]: 14.7
SGOT Increase - Number of Reports [3]: >= 4
Alkaline Phosphatase Increase - Activity Score [4]: Active
Alkaline Phosphatase Increase - Index Value [4]: 5.4
Alkaline Phosphatase Increase - Number of Reports [4]: >= 4
GGT Increase - Activity Score [5]: Inactive
GGT Increase - Index Value [5]: 0
GGT Increase - Number of Reports [5]: < 4
SGPT Increase - Activity Score [6]: Active
SGPT Increase - Index Value [6]: 10.7
SGPT Increase - Number of Reports [6]: >= 4

CC(C(=O)O)c1cccc(C(=O)c2ccccc2)c1 (stereo unspecified) [KETOPROFEN]
LDH Increase - Activity Score [1]: Inactive
LDH Increase - Index Value [1]: 0.4
LDH Increase - Number of Reports [1]: < 4
Composite Activity - Active [2]: 0
Composite Activity - Marginal [2]: 0
Composite Activity - Score [2]: Inactive
SGOT Increase - Activity Score [3]: Inactive
SGOT Increase - Index Value [3]: 0.6
SGOT Increase - Number of Reports [3]: < 4
Alkaline Phosphatase Increase - Activity Score [4]: Inactive
Alkaline Phosphatase Increase - Index Value [4]: 0.6
Alkaline Phosphatase Increase - Number of Reports [4]: < 4
GGT Increase - Activity Score [5]: Inactive
GGT Increase - Index Value [5]: 0
GGT Increase - Number of Reports [5]: < 4
SGPT Increase - Activity Score [6]: Inactive
SGPT Increase - Index Value [6]: 0.4
SGPT Increase - Number of Reports [6]: < 4

O=C(c1ccccc1)c1ccc2n1CCC2C(=O)O (stereo unspecified) [KETOROLAC]
LDH Increase - Activity Score [1]: Inactive
LDH Increase - Index Value [1]: 0.5
LDH Increase - Number of Reports [1]: >= 4
Composite Activity - Active [2]: 0
Composite Activity - Marginal [2]: 0
Composite Activity - Score [2]: Inactive
SGOT Increase - Activity Score [3]: Inactive
SGOT Increase - Index Value [3]: 0.9
SGOT Increase - Number of Reports [3]: >= 4
Alkaline Phosphatase Increase - Activity Score [4]: Inactive
Alkaline Phosphatase Increase - Index Value [4]: 1.4
Alkaline Phosphatase Increase - Number of Reports [4]: >= 4
GGT Increase - Activity Score [5]: Inactive
GGT Increase - Index Value [5]: 0.5
GGT Increase - Number of Reports [5]: < 4
SGPT Increase - Activity Score [6]: Inactive
SGPT Increase - Index Value [6]: 0.6
SGPT Increase - Number of Reports [6]: >= 4

CC(CCc1ccccc1)NCC(O)c1ccc(O)c(C(N)=O)c1 (stereo unspecified) [LABETALOL]
LDH Increase - Activity Score [1]: Inactive
LDH Increase - Index Value [1]: 0.4
LDH Increase - Number of Reports [1]: < 4
Composite Activity - Active [2]: 0
Composite Activity - Marginal [2]: 1
Composite Activity - Score [2]: Inactive
SGOT Increase - Activity Score [3]: Marginally Active
SGOT Increase - Index Value [3]: 3
SGOT Increase - Number of Reports [3]: >= 4
Alkaline Phosphatase Increase - Activity Score [4]: Inactive
Alkaline Phosphatase Increase - Index Value [4]: 0.9
Alkaline Phosphatase Increase - Number of Reports [4]: >= 4
GGT Increase - Activity Score [5]: Inactive
GGT Increase - Index Value [5]: 0
GGT Increase - Number of Reports [5]: < 4
SGPT Increase - Activity Score [6]: Inactive
SGPT Increase - Index Value [6]: 1.1
SGPT Increase - Number of Reports [6]: >= 4

Nc1ccn([C@@H]2CS[C@H](CO)O2)c(=O)n1 [LAMIVUDINE]
LDH Increase - Activity Score [1]: Inactive
LDH Increase - Index Value [1]: 2.1
LDH Increase - Number of Reports [1]: >= 4
Composite Activity - Active [2]: 2
Composite Activity - Marginal [2]: 0
Composite Activity - Score [2]: Active
SGOT Increase - Activity Score [3]: Active
SGOT Increase - Index Value [3]: 8.7
SGOT Increase - Number of Reports [3]: >= 4
Alkaline Phosphatase Increase - Activity Score [4]: Inactive
Alkaline Phosphatase Increase - Index Value [4]: 2.1
Alkaline Phosphatase Increase - Number of Reports [4]: >= 4
GGT Increase - Activity Score [5]: Inactive
GGT Increase - Index Value [5]: 1.7
GGT Increase - Number of Reports [5]: >= 4
SGPT Increase - Activity Score [6]: Active
SGPT Increase - Index Value [6]: 9
SGPT Increase - Number of Reports [6]: >= 4

Nc1nnc(-c2cccc(Cl)c2Cl)c(N)n1 [LAMOTRIGINE]
LDH Increase - Activity Score [1]: Marginally Active
LDH Increase - Index Value [1]: 3
LDH Increase - Number of Reports [1]: >= 4
Composite Activity - Active [2]: 2
Composite Activity - Marginal [2]: 1
Composite Activity - Score [2]: Active
SGOT Increase - Activity Score [3]: Active
SGOT Increase - Index Value [3]: 4
SGOT Increase - Number of Reports [3]: >= 4
Alkaline Phosphatase Increase - Activity Score [4]: Inactive
Alkaline Phosphatase Increase - Index Value [4]: 0.5
Alkaline Phosphatase Increase - Number of Reports [4]: < 4
GGT Increase - Activity Score [5]: Inactive
GGT Increase - Index Value [5]: 2
GGT Increase - Number of Reports [5]: < 4
SGPT Increase - Activity Score [6]: Active
SGPT Increase - Index Value [6]: 4
SGPT Increase - Number of Reports [6]: >= 4

Cc1c(OCC(F)(F)F)ccnc1C[S+]([O-])c1nc2ccccc2[nH]1 (stereo unspecified) [LANSOPRAZOLE]
LDH Increase - Activity Score [1]: Inactive
LDH Increase - Index Value [1]: 0.5
LDH Increase - Number of Reports [1]: < 4
Composite Activity - Active [2]: 0
Composite Activity - Marginal [2]: 0
Composite Activity - Score [2]: Inactive
SGOT Increase - Activity Score [3]: Inactive
SGOT Increase - Index Value [3]: 0.9
SGOT Increase - Number of Reports [3]: >= 4
Alkaline Phosphatase Increase - Activity Score [4]: Inactive
Alkaline Phosphatase Increase - Index Value [4]: 0.5
Alkaline Phosphatase Increase - Number of Reports [4]: < 4
GGT Increase - Activity Score [5]: Inactive
GGT Increase - Index Value [5]: 1.1
GGT Increase - Number of Reports [5]: >= 4
SGPT Increase - Activity Score [6]: Inactive
SGPT Increase - Index Value [6]: 1.2
SGPT Increase - Number of Reports [6]: >= 4

CC(C)OC(=O)CCC/C=C\C[C@@H]1[C@@H](CC[C@@H](O)CCc2ccccc2)[C@H](O)C[C@@H]1O [LATANOPROST]
LDH Increase - Activity Score [1]: Inactive
LDH Increase - Index Value [1]: 0
LDH Increase - Number of Reports [1]: < 4
Composite Activity - Active [2]: 0
Composite Activity - Marginal [2]: 0
Composite Activity - Score [2]: Inactive
SGOT Increase - Activity Score [3]: Inactive
SGOT Increase - Index Value [3]: 0.2
SGOT Increase - Number of Reports [3]: < 4
Alkaline Phosphatase Increase - Activity Score [4]: Inactive
Alkaline Phosphatase Increase - Index Value [4]: 0.2
Alkaline Phosphatase Increase - Number of Reports [4]: < 4
GGT Increase - Activity Score [5]: Inactive
GGT Increase - Index Value [5]: 0
GGT Increase - Number of Reports [5]: < 4
SGPT Increase - Activity Score [6]: Inactive
SGPT Increase - Index Value [6]: 0
SGPT Increase - Number of Reports [6]: < 4
